Patent US8916498B2, “Safening 6-(trisubstituted phenyl)-4-amino-2-pyridinecarboxylate herbicide injury on direct seeded and transplanted paddy rice” (priority 2008, dated 2014)
Where two headings read alike, the source gives them in different places.

Columns and labels:
[1] = tested on: direct seeded rice
[2] = tested on: ORYSA (rice); assay: Postemergence herbicidal safening in direct seeded rice, visual injury; details: for ‘M202’ ORYSA Visual Injury (%) Obs: Safener Alone, 560 g ai/ha; for ‘M202’ ORYSA Visual Injury (%) Obs / Visual Injury (%) ‘Lemont’ ORYSA Obs: after 3 weeks
Source text: A=observed efficacy of active ingredient A at the same concentration as used in the mixture.
B=observed efficacy of active ingredient B at the same concentration as used in the mixture.

[3] = tested on: ECHCO; assay: Postemergence herbicidal safening in direct seeded rice, visual injury on weed; assay type: in vivo; details: alone, after 3 weeks
[4] = tested on: SEBEX; assay: as above; assay type: in vivo; details: alone, after 3 weeks
[5] = tested on: CYPDI; assay: as above; assay type: in vivo; details: alone, after 3 weeks
[6] = tested on: weed test plant species; assay: Herbicidal safening in transplanted paddy rice, visual injury on weeds; assay type: in vivo; details: after 3 weeks; for Visual Injury (%) CYPDI Obs: Cyperus difformis; for Visual Injury (%) MOOVA Obs: Monochoria vaginalis; for Visual Injury (%) SCPJU Obs: Scirpus juncoides
Method: (§1) Evaluation of Herbicidal Safening in Transplanted Paddy Rice
(§2) The prepared mud was dispensed in 250 mL aliquots into 480 mL non-perforated plastic pots with a surface area of 91.6 cm^2 leaving a headspace of 3 cm in each pot. Rice seeds were planted in Sun Gro MetroMix 306 planting mixture, which typically has a pH of 6.0 to 6.8 and an organic matter content of about 30 percent, in plastic plug trays. Seedlings at the second or third leaf stage of growth were transplanted into 650 mL of mud contained in 960 mL non-perforated plastic pots with a surface area of 91.6 cm^2 four days prior to herbicide application. The paddy was created by filling the 3 cm headspace of the pots with water. […] Nutrients were added as Osmocote (17:6:10, Nitrogen:Phosphorus:Potassium (N:P:K)+minor nutrients) at 2 grams (g) per cup.
(§3) For technical grade compounds and safeners, a weighed amount, determined by the highest rate to be tested, was placed in an individual 120 mL glass vial and was dissolved in 20 mL of acetone to obtain concentrated stock solutions. […] The concentrated stock solutions obtained were diluted with 20 mL of acetone. Applications were made by injecting an appropriate amount of the stock solution into the aqueous layer of the paddy. […] All treated plant material received the same concentration of acetone and crop oil concentrate.

[7] = tested on: transplanted paddy rice; assay: Safening activity of herbicide mixtures in transplanted paddy rice; assay type: in vivo, Oryza sativa
Method: as §2, §3
Forms of compound 1 were applied on an acid equivalent basis.

[8] = tested on: transplanted paddy rice; assay: Herbicidal safening in transplanted paddy rice, visual injury; assay type: in vivo, Oryza sativa; details: after 3 weeks; for ‘M202’ ORYSA Visual Injury (%) Obs: safener 1120 g ae/ha alone
Method: as §1, §2, §3

[9] = alone, 140 g ai/ha, after 3 weeks (Table 14)
[10] = alone, 280 g ai/ha, after 3 weeks (Table 14)

## COc1cc(OC)nc(Oc2cccc(Oc3nc(OC)cc(OC)n3)c2C(=O)O)n1 [Bispyribac sodium]
[1]; partner 28 g/ha alone
  ORYSA Visual Injury (%) ‘M202’ Obs: 15%
  ORYSA Visual Injury (%) ‘Wells’ Obs: 20%

## CCOC(=O)C(Cl)Cc1cc(-n2nc(C)n(C(F)F)c2=O)c(F)cc1Cl (stereo not shown) [Carfentrazone-ethyl]
[1]; partner 56 g/ha alone
  ORYSA Visual Injury (%) ‘M202’ Obs: 20%
  ORYSA Visual Injury (%) ‘Wells’ Obs: 25%
[1]; partner 112 g/ha alone
  ORYSA Visual Injury (%) ‘M202’ Obs: 20%
  ORYSA Visual Injury (%) ‘Wells’ Obs: 35%

## CCCCCC(C)OC(=O)COc1ccc(Cl)c2cccnc12 (stereo not shown) [Cloquintocet-mexyl]
[2]
  ‘M202’ ORYSA Visual Injury (%) Obs: 3.3%
[2]; alone, 35 g ai/ha
  Visual Injury (%) ‘Lemont’ ORYSA Obs: 0%
[2]; alone, 70 g ai/ha
  Visual Injury (%) ‘Lemont’ ORYSA Obs: 0%
[2]; alone, 140 g ai/ha
  Visual Injury (%) ‘Lemont’ ORYSA Obs: 0%
[2]; [9]
  ORYSA Visual Injury (%) ‘Cheniere’ Obs: 0%
  ORYSA Visual Injury (%) ‘Clearfield’ Obs: 0%
  ORYSA Visual Injury (%) ‘Cocodrie’ Obs: 0%
  ORYSA Visual Injury (%) ‘Lemont’ Obs: 0%
  ORYSA Visual Injury (%) ‘M202’ Obs: 0%
  ORYSA Visual Injury (%) ‘Wells’ Obs: 0%
[2]; alone, 280 g ae/ha
  Visual Injury (%) ‘Lemont’ ORYSA Obs: 0%
[2]; alone, 280 g ai/ha
  Visual Injury (%) ‘Lemont’ ORYSA Obs: 0%
[2]; [10]
  ORYSA Visual Injury (%) ‘Cheniere’ Obs: 0%
  ORYSA Visual Injury (%) ‘Clearfield’ Obs: 0%
  ORYSA Visual Injury (%) ‘Cocodrie’ Obs: 0%
  ORYSA Visual Injury (%) ‘Lemont’ Obs: 0%
  ORYSA Visual Injury (%) ‘M202’ Obs: 0%
  ORYSA Visual Injury (%) ‘Wells’ Obs: 0%
[3]; 35 g ai/ha
  Visual Injury (%) ECHCO Obs: 0%
[3]; 70 g ai/ha
  Visual Injury (%) ECHCO Obs: 0%
[3]; 140 g ai/ha
  Visual Injury (%) ECHCO Obs: 0%
[3]; 280 g ae/ha
  Visual Injury (%) ECHCO Obs: 0%
[3]; 280 g ai/ha
  Visual Injury (%) ECHCO Obs: 0%
[4]; 35 g ai/ha
  Visual Injury (%) SEBEX Obs: 0%
[4]; 70 g ai/ha
  Visual Injury (%) SEBEX Obs: 0%
[4]; 140 g ai/ha
  Visual Injury (%) SEBEX Obs: 0%
[4]; 280 g ae/ha
  Visual Injury (%) SEBEX Obs: 0%
[4]; 280 g ai/ha
  Visual Injury (%) SEBEX Obs: 0%
[5]; 35 g ai/ha
  Visual Injury (%) CYPDI Obs: 0%
[5]; 70 g ai/ha
  Visual Injury (%) CYPDI Obs: 0%
[5]; 140 g ai/ha
  Visual Injury (%) CYPDI Obs: 0%
[5]; 280 g ae/ha
  Visual Injury (%) CYPDI Obs: 0%
[5]; 280 g ai/ha
  Visual Injury (%) CYPDI Obs: 0%
[6]; safener 70 g ai/ha alone
  Visual Injury (%) CYPDI Obs: 0%
  Visual Injury (%) MOOVA Obs: 0%
[6]; safener 140 g ai/ha alone
  Visual Injury (%) CYPDI Obs: 0%
  Visual Injury (%) MOOVA Obs: 0%
[6]; safener 280 g ai/ha alone
  Visual Injury (%) CYPDI Obs: 0%
  Visual Injury (%) MOOVA Obs: 0%

## COc1c(Cl)ccc(-c2cc(N)c(Cl)c(C(=O)[O-])n2)c1F.[Na+] [Compound 1 Na + salt]
[2]; alone, 70 g ai/ha
  Visual Injury (%) ‘Lemont’ ORYSA Obs: 50%
[3]; 70 g ai/ha
  Visual Injury (%) ECHCO Obs: 95%
[4]; 70 g ai/ha
  Visual Injury (%) SEBEX Obs: 100%
[5]; 70 g ai/ha
  Visual Injury (%) CYPDI Obs: 95%
[6]; herbicide 70 g ai/ha alone
  Visual Injury (%) CYPDI Obs: 100%
  Visual Injury (%) MOOVA Obs: 100%

## COc1c(Cl)ccc(-c2cc(N)c(Cl)c(C(=O)[O-])n2)c1Cl.[Na+] [Compound 2 Na + salt]
[2]; alone, 70 g ai/ha
  Visual Injury (%) ‘Lemont’ ORYSA Obs: 15%
[3]; 70 g ai/ha
  Visual Injury (%) ECHCO Obs: 90%
[4]; 70 g ai/ha
  Visual Injury (%) SEBEX Obs: 100%
[5]; 70 g ai/ha
  Visual Injury (%) CYPDI Obs: 100%
[6]; herbicide 70 g ai/ha alone
  Visual Injury (%) CYPDI Obs: 100%
  Visual Injury (%) MOOVA Obs: 100%

## CCCCOC(=O)[C@@H](C)Oc1ccc(Oc2ccc(C#N)cc2F)cc1 [Cyhalofop-butyl]
[7]; partner 90 g/ha alone
  Visual Injury (%) ‘M202’ ORYSA Obs: 0%
[7]; partner 180 g/ha alone
  Visual Injury (%) ‘M202’ ORYSA Obs: 0%

## Clc1cc(Cl)nc(-c2ccccc2)n1 [Fenclorim, 4,6-dichloro-2-phenylpyrimidine]
[2]
  ‘M202’ ORYSA Visual Injury (%) Obs: 6.7%
[2]; alone, 35 g ai/ha
  Visual Injury (%) ‘Lemont’ ORYSA Obs: 0%
[2]; alone, 70 g ai/ha
  Visual Injury (%) ‘Lemont’ ORYSA Obs: 0%
[2]; alone, 140 g ai/ha
  Visual Injury (%) ‘Lemont’ ORYSA Obs: 0%
[2]; alone, 280 g ai/ha
  Visual Injury (%) ‘Lemont’ ORYSA Obs: 0%
[3]; 35 g ai/ha
  Visual Injury (%) ECHCO Obs: 0%
[3]; 70 g ai/ha
  Visual Injury (%) ECHCO Obs: 0%
[3]; 140 g ai/ha
  Visual Injury (%) ECHCO Obs: 0%
[3]; 280 g ai/ha
  Visual Injury (%) ECHCO Obs: 0%
[4]; 35 g ai/ha
  Visual Injury (%) SEBEX Obs: 0%
[4]; 70 g ai/ha
  Visual Injury (%) SEBEX Obs: 0%
[4]; 140 g ai/ha
  Visual Injury (%) SEBEX Obs: 0%
[4]; 280 g ai/ha
  Visual Injury (%) SEBEX Obs: 0%
[5]; 35 g ai/ha
  Visual Injury (%) CYPDI Obs: 0%
[5]; 70 g ai/ha
  Visual Injury (%) CYPDI Obs: 0%
[5]; 140 g ai/ha
  Visual Injury (%) CYPDI Obs: 0%
[5]; 280 g ai/ha
  Visual Injury (%) CYPDI Obs: 0%
[6]; safener 70 g ai/ha alone
  Visual Injury (%) CYPDI Obs: 0%
  Visual Injury (%) MOOVA Obs: 0%
[6]; safener 140 g ai/ha alone
  Visual Injury (%) CYPDI Obs: 0%
  Visual Injury (%) MOOVA Obs: 0%
[6]; safener 280 g ai/ha alone
  Visual Injury (%) CYPDI Obs: 0%
  Visual Injury (%) MOOVA Obs: 0%

## COC(=O)c1c(Cl)nn(C)c1S(=O)(=O)NC(=O)Nc1nc(OC)cc(OC)n1 [Halosulfuron-methyl]
[1]; partner 26 g/ha alone
  ORYSA Visual Injury (%) ‘M202’ Obs: 0%
  ORYSA Visual Injury (%) ‘Wells’ Obs: 10%
[1]; partner 52 g/ha alone
  ORYSA Visual Injury (%) ‘M202’ Obs: 15%

## CCOC(=O)C1=NOC(c2ccccc2)(c2ccccc2)C1 [Isoxadifen-ethyl, ethyl 4,5-dihydro-5,5-diphenyl-3-isoxazole-carboxylate]
[2]; alone, 17.5 g ai/ha
  Visual Injury (%) ‘Lemont’ ORYSA Obs: 0%
[2]; alone, 35 g ai/ha
  Visual Injury (%) ‘Lemont’ ORYSA Obs: 5%
[2]; alone, 70 g ai/ha
  Visual Injury (%) ‘Lemont’ ORYSA Obs: 10%
[2]; alone, 140 g ai/ha
  Visual Injury (%) ‘Lemont’ ORYSA Obs: 5%
[3]; 17.5 g ai/ha
  Visual Injury (%) ECHCO Obs: 0%
[3]; 35 g ai/ha
  Visual Injury (%) ECHCO Obs: 0%
[3]; 70 g ai/ha
  Visual Injury (%) ECHCO Obs: 0%
[3]; 140 g ai/ha
  Visual Injury (%) ECHCO Obs: 0%
[4]; 17.5 g ai/ha
  Visual Injury (%) SEBEX Obs: 0%
[4]; 35 g ai/ha
  Visual Injury (%) SEBEX Obs: 0%
[4]; 70 g ai/ha
  Visual Injury (%) SEBEX Obs: 0%
[4]; 140 g ai/ha
  Visual Injury (%) SEBEX Obs: 0%
[5]; 17.5 g ai/ha
  Visual Injury (%) CYPDI Obs: 0%
[5]; 35 g ai/ha
  Visual Injury (%) CYPDI Obs: 0%
[5]; 70 g ai/ha
  Visual Injury (%) CYPDI Obs: 0%
[5]; 140 g ai/ha
  Visual Injury (%) CYPDI Obs: 0%
[8]; safener 140 g ai/ha alone
  Visual Injury (%) ‘M202’ ORYSA Obs: 0%
[8]; safener 280 g ai/ha alone
  Visual Injury (%) ‘M202’ ORYSA Obs: 0%
[8]; safener 560 g ai/ha alone
  Visual Injury (%) ‘M202’ ORYSA Obs: 0%
[8]
  ‘M202’ ORYSA Visual Injury (%) Obs: 0%
[6]; safener 140 g ai/ha alone
  Visual Injury (%) SCPJU Obs: 0%
  Visual Injury (%) ECHCG Obs: 0%
[6]; safener 280 g ai/ha alone
  Visual Injury (%) SCPJU Obs: 0%
  Visual Injury (%) ECHCG Obs: 0%
[6]; safener 560 g ai/ha alone
  Visual Injury (%) SCPJU Obs: 0%
  Visual Injury (%) ECHCG Obs: 0%

## CCOC(=O)C1=NN(c2ccc(Cl)cc2Cl)C(C)(C(=O)OCC)C1 (stereo not shown) [Mefenpyr-diethyl]
[2]
  ‘M202’ ORYSA Visual Injury (%) Obs: 0.0%
[2]; safener 140 g ai/ha alone
  ORYSA Visual Injury (%) ‘Clearfield’ Obs: 0%
  ORYSA Visual Injury (%) ‘Cocodrie’ Obs: 10%
  ORYSA Visual Injury (%) ‘Lemont’ Obs: 0%
  ORYSA Visual Injury (%) ‘M202’ Obs: 10%
[8]
  ‘M202’ ORYSA Visual Injury (%) Obs: 0%

## CNc1cnn(-c2cccc(C(F)(F)F)c2)c(=O)c1Cl [Norflurazon]
[1]; partner 70 g/ha alone
  ORYSA Visual Injury (%) ‘M202’ Obs: 15%

## O=c1c(Cl)c[nH]c(Cl)c1Cl [Pyriclor]
[7]; partner 140 g/ha alone
  Visual Injury (%) ‘M202’ ORYSA Obs: 0%

## CS(=O)(=O)c1ccc(C(=O)C2C(=O)CCCC2=O)c(Cl)c1 [Sulcotrione]
[7]; partner 280 g/ha alone
  Visual Injury (%) ‘M202’ ORYSA Obs: 10%
[1]; partner 280 g/ha alone
  ORYSA Visual Injury (%) ‘Wells’ Obs: 99%
